The values that follow come from ChEMBL document CHEMBL3804786, “Novel 1,3-thiazolidin-4-one derivatives as promising anti-Candida agents endowed with anti-oxidant and chelating properties” (Eur J Med Chem, 2016).

≈ marks a conversion by molar mass, not a printed value. Bounds are passed on as bounds.

A short description of series [1]: Cytotoxicity against human Hep2 cells assessed as reduction in cell viability after 24 hrs by trypan blue exclusion assay. The series is classed as cell-based, HEp-2.
The subject of the next series is Escherichia coli. In words: Antibacterial activity against Escherichia coli after clinical isolate 18 to 22 hrs by broth microdilution method. The series is classed as functional. In general terms: Broth dilution looks for growth in wells or tubes with falling amounts of substance.
Series [2] can be described thus: Cytotoxicity against human Hep2 cells assessed as cell survival at 10 ug/ml after 24 hrs by trypan blue exclusion assay. The conditions noted are these: read-out: Survival. The series is classed as cell-based, HEp-2.
The test system of a further series is Enterobacter sp. Put plainly: Antibacterial activity against Enterobacter spp. clinical isolate after 18 to 22 hrs by broth microdilution method. The format is functional.
The subject of a further series is Klebsiella oxytoca. Put plainly: Antibacterial activity against Klebsiella oxytoca clinical isolate after 18 to 22 hrs by broth microdilution method. The series is classed as functional.
Series [3] is described as follows: Cytotoxicity against human Hep2 cells assessed as cell survival at 0.05 ug/ml after 24 hrs by trypan blue exclusion assay. The series is classed as cell-based, HEp-2. The following applies: read-out: Survival.
Another series has as its system Candida albicans. Put plainly: Antifungal activity against Candida albicans clinical isolate after 24 hrs by broth microdilution method. The series is classed as functional.
A further series deals with Staphylococcus aureus. Put plainly: Antibacterial activity against Staphylococcus aureus clinical isolate after 18 to 22 hrs by broth microdilution method. The series is classed as functional.
The test system of the next series is Staphylococcus warneri. Put plainly: Antibacterial activity against Staphylococcus warneri clinical isolate after 18 to 22 hrs by broth microdilution method. The format is functional.
The test system of another series is Enterococcus faecalis. In words: Antibacterial activity against Streptococcus faecalis clinical isolate after 18 to 22 hrs by broth microdilution method. The series is classed as functional.
Series [4] can be described thus: Antioxidant activity of the compound after 30 mins by CUPRAC method. The series is classed as physicochemical.
A short description of series [5]: Antioxidant activity assessed as DPPH radical scavenging activity after 30 mins under dark conditions. The series is classed as physicochemical.
The subject of another series is Candida tropicalis. In words: Antifungal activity against Candida tropicalis clinical isolate after 24 hrs by broth microdilution method. The format is functional.
The next series deals with Nakaseomyces glabratus. Put plainly: Antifungal activity against Candida glabrata clinical isolate after 24 hrs by broth microdilution method. The series is classed as functional.
Series [6] can be described thus: Cytotoxicity against human Hep2 cells assessed as cell survival at 50 ug/ml after 24 hrs by trypan blue exclusion assay. The series is classed as cell-based, HEp-2. The following applies: read-out: Survival.
The test system of series [7] is Streptococcus sp. (viridans group). In words: Antibacterial activity against Streptococcus alpha-hemolyticus clinical isolate after 18 to 22 hrs by broth microdilution method.
Series [8] can be described thus: Antioxidant activity of the compound after 30 mins by FRAP assay. The format is physicochemical.
The nature of series [9]: Antioxidant activity assessed as ABTS radical scavenging activity after 30 mins under dark conditions. The format is physicochemical.
The subject of the next series is Candida parapsilosis. In words: Antifungal activity against Candida parapsilosis clinical isolate after 24 hrs by broth microdilution method. The format is functional. The conditions noted are these: Lodderomyces parapsilosis.
Series [10] can be described thus: Antioxidant activity of the compound after 90 mins by phosphomolybdenum assay. The format is physicochemical.
Series [11] in a line: Metal chelating activity of the compound assessed as ferrous ion complex formation after 10 mins. The format is physicochemical.
Series [12] is described as follows: Cytotoxicity against human Hep2 cells assessed as cell survival at 0.5 ug/ml after 24 hrs by trypan blue exclusion assay. The series is classed as cell-based, HEp-2. The conditions noted are these: read-out: Survival.
Series [13] can be described thus: Cytotoxicity against human Hep2 cells assessed as cell survival at 5 ug/ml after 24 hrs by trypan blue exclusion assay. The conditions noted are these: read-out: Survival. The format is cell-based, HEp-2.
The subject of a further series is [Candida] sake. Put plainly: Antifungal activity against Candida sake clinical isolate after 24 hrs by broth microdilution method. The format is functional. The conditions noted are these: Fermentozyma sake.
The subject of a further series is Pichia kudriavzevii. In words: Antifungal activity against Candida krusei clinical isolate after 24 hrs by broth microdilution method. The format is functional.
A further series deals with Proteus mirabilis. In words: Antibacterial activity against Proteus mirabilis clinical isolate after 18 to 22 hrs by broth microdilution method. The format is functional.

In the case of `C/C(=N\N=C1/SCC(=O)N1Cc1cccc(Cl)c1)c1cccs1`, the 50% cytotoxic concentration (CC50) (usually the concentration giving 50% cytotoxicity) at 24 h in series [1] was found to be 21 µg/mL (≈ 57.7 µM). The MIC – broadly, the lowest concentration that inhibits growth of the organism – was above 256 µg/mL with Escherichia coli; above 256 µg/mL with Enterobacter sp.; above 256 µg/mL against Klebsiella oxytoca; 2 µg/mL (≈ 5.5 µM) in the series with Candida albicans; above 256 µg/mL in the series with Staphylococcus aureus; above 256 µg/mL in the series on Staphylococcus warneri. Moreover, the MIC with Enterococcus faecalis was above 256 µg/mL; against Candida tropicalis, 2 µg/mL (≈ 5.5 µM); against Nakaseomyces glabratus, 2 µg/mL (≈ 5.5 µM); in series [7] it was above 256 µg/mL; against Candida parapsilosis, 2 µg/mL (≈ 5.5 µM); in series [Candida] sake it was 2 µg/mL (≈ 5.5 µM). For the same compound, the results for the minimal inhibitory concentration (MIC) against Pichia kudriavzevii and against Proteus mirabilis were 2 µg/mL (≈ 5.5 µM) and above 256 µg/mL, respectively. In addition, the viability at 24 h, 10 ug/ml in [2] was determined as 63%. For the same compound, the viability at 24 h, 0.05 ug/ml in series [3] was found to be 94%. The results for the EC50 in series [4], in [8] and in [10] were 1.59 mM, 2.32 mM and 1.16 mM, respectively. Further, the 50% inhibitory concentration (IC50) (commonly the midpoint of a concentration-inhibition curve) is above 5 mM in series [5], 20.3 mM in series [9] and 1.64 mM in series [11]. Besides, the viability at 24 h, 50 ug/ml in series [6] came out at 0%. Also, the viability at 24 h, 0.5 ug/ml in [12] stood at 89%. The viability at 24 h, 5 ug/ml in series [13] is 82%.

Regarding `C/C(=N\N=C1/SCC(=O)N1Cc1cccc(F)c1)c1cccs1`, in series [1], the CC50 at 24 h is 6 µg/mL (≈ 17.3 µM). In addition, the MIC against Escherichia coli was above 256 µg/mL; with Enterobacter sp., above 256 µg/mL; against Klebsiella oxytoca, above 256 µg/mL; in the series on Candida albicans it was 2 µg/mL (≈ 5.76 µM); against Staphylococcus aureus, above 256 µg/mL; against Staphylococcus warneri, above 256 µg/mL. The minimal inhibitory concentration (MIC) was above 256 µg/mL in the series on Enterococcus faecalis; 2 µg/mL (≈ 5.76 µM) against Candida tropicalis; 8 µg/mL (≈ 23 µM) in the series on Nakaseomyces glabratus; above 256 µg/mL in [7]; 2 µg/mL (≈ 5.76 µM) in the series on Candida parapsilosis; 2 µg/mL (≈ 5.76 µM) in [Candida] sake. Besides, the values for the minimum inhibitory concentration (MIC) against Pichia kudriavzevii and against Proteus mirabilis were 2 µg/mL (≈ 5.76 µM) and above 256 µg/mL, respectively. For the same compound, the viability at 24 h, 10 ug/ml in [2] came out at 0%. For the same compound, the viability at 24 h, 0.05 ug/ml in [3] is 80%. Moreover, the EC50 (in general, the concentration that produces a half-maximal response) in series [4] turned out to be 2.55 mM; in series [8], 2.62 mM; in series [10], 1.36 mM. Also, the IC50 was above 5 mM in series [5], 21.1 mM in [9] and 4.64 mM in [11]. Moreover, the viability at 24 h, 50 ug/ml in series [6] turned out to be 0%. Moreover, in [12], the viability at 24 h, 0.5 ug/ml came out at 68%. Also, the viability at 24 h, 5 ug/ml in [13] is 42%.

`C/C(=N/N=C1\SCC(=O)N1Cc1ccc(F)cc1)c1ccccn1`: the CC50 at 24 h in [1] came to 16 µg/mL (≈ 46.7 µM). Also, the MIC with Escherichia coli is above 256 µg/mL; with Enterobacter sp., above 256 µg/mL; in the series with Klebsiella oxytoca, above 256 µg/mL; in the series with Candida albicans, 2 µg/mL (≈ 5.84 µM); against Staphylococcus aureus, above 256 µg/mL; with Staphylococcus warneri, above 256 µg/mL. Besides, the minimum inhibitory concentration (MIC) against Enterococcus faecalis is above 256 µg/mL; with Candida tropicalis, 2 µg/mL (≈ 5.84 µM); against Nakaseomyces glabratus, 2 µg/mL (≈ 5.84 µM); in series [7], above 256 µg/mL; with Candida parapsilosis it was 4 µg/mL (≈ 11.7 µM); in [Candida] sake, 2 µg/mL (≈ 5.84 µM). Further, the minimal inhibitory concentration (MIC) in the series on Pichia kudriavzevii is 8 µg/mL (≈ 23.4 µM); with Proteus mirabilis, above 256 µg/mL. Also, the viability at 24 h, 10 ug/ml in series [2] was found to be 42%. The viability at 24 h, 0.05 ug/ml in series [3] was 91%. Besides, the EC50 is 1.75 mM in series [4], 6.22 mM in series [8] and 1.16 mM in series [10]. The IC50 in series [5] is above 5 mM; in [9] it was 16.1 mM; in [11] it was 3.67 mM. The viability at 24 h, 50 ug/ml in series [6] came to 0%. Also, in series [12], the viability at 24 h, 0.5 ug/ml was 83%. The viability at 24 h, 5 ug/ml in [13] was found to be 70%.

For `Clc1ccccc1C(c1ccccc1)(c1ccccc1)n1ccnc1` [CLOTRIMAZOLE], the CC50 at 24 h in series [1] was found to be 18 µg/mL (≈ 52.2 µM). Besides, the minimal inhibitory concentration (MIC) (against Candida albicans; in the series on Candida tropicalis; against Nakaseomyces glabratus; against Candida parapsilosis; in series [Candida] sake; against Pichia kudriavzevii) was 2 µg/mL (≈ 5.8 µM) throughout. In [6], the viability at 24 h, 50 ug/ml was determined as 10.2%.
